Like-named read-outs stand apart in the source and are kept apart here.
Assays:
[1] = Pharmacokinetic parameters in plasma after intra-articular administration to rats; format: in vivo, Sprague Dawley rats; conditions: for Tmax / AUC(0-t) / AUC0-inf / Cmax / AUC0-672 / AUC0-1344 / Ratio Result from Compound Form 3/Compound Form 1: AUC0-672 / Ratio Result from Compound Form 3/Compound Form 1: AUC0-1344 / Ratio Result from Compound Form 3/Compound Form 1: AUC0-inf / Ratio Result from Compound Form 3/Compound Form 1: Cmax: plasma; for Tmax / AUC(0-t) / AUC0-inf / Cmax / AUC0-672 / AUC0-1344: male rat; for Tmax: range printed in row below; for AUC(0-t) / AUC0-inf / Cmax / AUC0-672 / AUC0-1344: mean
Experimental: (§1) Male rats were administered one of the following Test Articles via intra-articular administration to the left knee joint and thereafter pharmacokinetic properties were monitored: crystalline 3-(3-methoxy-4-((4-methoxybenzyl)oxy)benzyl)-6-(1-methyl-1H-pyrazol-4-yl)-3H-imidazo[4,5-b]pyridin-2-amine monohydrate Form 3 (“Form 3 Compound”) or crystalline 3-(3-methoxy-4-((4-methoxybenzyl)oxy)benzyl)-6-(1-methyl-1H-pyrazol-4-yl)-3H-imidazo[4,5-b]pyridin-2-amine monohydrate Form 1 (“Form 1 Compound”).
(§2) Male Sprague Dawley rats were allocated into four groups, where each group contained 12 rats having a weight in the range of 250 g to 300 g and an age of 7 to 9 weeks. Test Article was administered in the form of a suspension via intra-articular injection to the left knee joint of the rats according to the experimental design set forth in Table 1 below.
(§3) Each Test Article contained the specified methoxy-4-((4-methoxybenzyl)oxy)benzyl)-6-(1-methyl-1H-pyrazol-4-yl)-3H-imidazo[4,5-b]pyridin-2-amine monohydrate compound suspended in vehicle. Vehicle was […], 4.5% sorbitol, in aqueous phosphate buffer at pH 7.4. Each Test Article in the form of a suspension contained 20 mg/mL methoxy-4-((4-methoxy-benzyl)oxy)benzyl)-6-(1-methyl-1H-pyrazol-4-yl)-3H-imidazo[4,5-b]pyridin-2-amine monohydrate in the specified crystalline form.
Blood samples were collected from the jugular vein of the rats via syringe and needle and transferred into tubes containing K3EDTA. Blood samples were collected from the first six animals/group at 2 minutes, 10 minutes, 1 hr, 4 hr, 12 hr, 72 hr, 336 hr, and 672 hr after administration of Test Article. Blood samples were collected from the second six animals/group at 5 minutes, 0.5 hr, 2 hr, 8 hr, 24 hr, 168 hr, 1008 hr, and 1344 hr after administration of Test Article. Following centrifugation of the blood samples, plasma was cooled using dry ice until it was subjected to analytical analysis using liquid chromatograph-mass spectrometry to determine the amount of the compound methoxy-4-((4-methoxybenzyl)oxy)benzyl)-6-(1-methyl-1H-pyrazol-4-yl)-3H-imidazo[4,5-b]pyridin-2-amine.

[2] = Comparison of stability: temperature of dehydration; format: physicochemical
Description: Stability of crystalline 3-(3-methoxy-4-((4-methoxybenzyl)oxy)benzyl)-6-(1-methyl-1H-pyrazol-4-yl)-3H-imidazo[4,5-b]pyridin-2-amine monohydrate Form 3 was compared to crystalline 3-(3-methoxy-4-((4-methoxybenzyl)oxy)benzyl)-6-(1-methyl-1H-pyrazol-4-yl)-3H-imidazo[4,5-b]pyridin-2-amine monohydrate Form 1. The physical property analyzed was temperature of dehydration. Crystalline 3-(3-methoxy-4-((4-methoxybenzyl)oxy)benzyl)-6-(1-methyl-1H-pyrazol-4-yl)-3H-imidazo[4,5-b]pyridin-2-amine monohydrate Form 1 is that described in international patent application publication WO 2016/100677.

[3] = Dialysis dissolution in simulated intra-articular fluid; format: physicochemical; conditions: for average release rate: at the 7 day time point, PBS pH 7.4 with BSA, 37° C.; for average release rate / one-half dissolution time: listed as crystalline 3-(3-methoxy-4-(4-methoxybenzyl)oxy)benzyl)-6-(1-methyl-1H-pyrazol-, monohydrate; for one-half dissolution time: dialysis bag, BSA/sodium hyaluronate in PBS pH 7.4, 37° C., 20 RPM
Experimental: Dialysis dissolution of the following Test Compositions in simulated intra-articular fluid was analyzed: • Crystalline 3-(3-methoxy-4-((4-methoxybenzyl)oxy)benzyl)-6-(1-methyl-1H-pyrazol-4-yl)-3H-imidazo[4,5-b]pyridin-2-amine Monohydrate Form 3, and • Crystalline 3-(3-methoxy-4-((4-methoxybenzyl)oxy)benzyl)-6-(1-methyl-1H-pyrazol-4-yl)-3H-imidazo[4,5-b]pyridin-2-amine Monohydrate Form 1.
Procedurally, Test Composition was placed into a dialysis bag along with Medium A. The dialysis bag was then closed and placed into a closed bottle containing Medium B. Medium A and B were preheated to 37° C. before use in the experiment. The closed bottles were placed into a rotating mixer system operating at 20 RPM so as to avoid suspension sedimentation inside the dialysis bag. An aliquot of Medium B from the bottle was removed at the following time points and analyzed by high-performance liquid chromatography with UV detection to determine the amount of 3-(3-methoxy-4-((4-methoxybenzyl)oxy)benzyl)-6-(1-methyl-1H-pyrazol-4-yl)-3H-imidazo[4,5-b]pyridin-2-amine in Medium B due to dialysis dissolution of the Test Composition from Medium A through the dialysis bag to Medium B: 3 hr, 6 hr, 24 hr, 29 hr, 48 hr, 72 hr, 144 hr, 168 hr, 192 hr, 216 hr, and 240 hr. One Test Composition was analyzed at the 360 hour timepoint. Medium A was bovine serum albumin (BSA) at 40 g/L (+0.2 g/L sodium azide), sodium hyaluronate at 3 g/L in reconstituted phosphate buffer saline pH 7.4. Medium B was bovine serum albumin (BSA) at 40 g/L (+0.2 g/L sodium azide) in reconstituted phosphate buffer saline pH 7.4.

[4] = Knee joint concentration and knee/plasma ratio after intra-articular administration to rats; format: in vivo, Sprague Dawley rats; conditions: for knee concentration of compound (in words): 0.1 mg dose, 672 hours, majority of animals
Experimental: as §1, §2, §3
The left knee joint (without injuring the articular capsule) of the rats together with 5-10 mm of both tibia and femur was collected from the first 6 animals/group after sacrifice at the last blood collection time point at approximately 672 hours postdose. The harvested knee joint was weighed. The left knee joint (without injuring the articular capsule) of the rats together with 5-10 mm of both tibia and femur was collected from the second 6 animals/group after sacrifice at the last blood collection time point at approximately 1344 hours postdose. The harvested knee joint was weighed. Tissue samples were maintained on dry ice prior to storage at −60 to −80° C. The knee joint samples were pulverized, then extracted with acetonitrile/water to provide a solution that was analyzed by using liquid chromatograph-mass spectrometry to determine the amount of the compound methoxy-4-((4-methoxybenzyl)oxy)benzyl)-6-(1-methyl-1H-pyrazol-4-yl)-3H-imidazo[4,5-b]pyridin-2-amine.

Dynamic vapor sorption = format: physicochemical; conditions: 25° C., 2 cycles of increasing and decreasing relative humidity, steps of 5% RH
Experimental: A dynamic vapor sorption isotherm plot of crystalline 3-(3-methoxy-4-((4-methoxybenzyl)oxy)benzyl)-6-(1-methyl-1H-pyrazol-4-yl)-3H-imidazo[4,5-b]pyridin-2-amine monohydrate Form 3 is provided in FIG. 3. The dynamic vapor sorption isotherm plot results are from the procedure where after a drying stage at 0% relative humidity, compound sample was exposed to 2 cycles of increasing and decreasing relative humidity at 25° C., with steps of 5% relative humidity, where mass of the sample was recorded throughout the experiment.

[5] = 0.1 mg/knee intra-articular, monohydrate
[6] = 1 mg/knee intra-articular, monohydrate
[7] = 0.1 mg/knee, 672 hr, monohydrate
[8] = 1 mg/knee, 1344 hr, monohydrate

For `COc1ccc(COc2ccc(Cn3c(N)nc4cc(-c5cnn(C)c5)cnc43)cc2OC)cc1` [Form 1 Compound, 3-(3-methoxy-4-((4-methoxybenzyl)oxy)benzyl)-6-(1-methyl-1H-pyrazol-4-yl)-3H-imidazo[4,5-b]pyridin-2-amine monohydrate, reference compound], the Tmax ([1]; Sprague Dawley, 0.1 mg/knee intra-articular) was 4 h, the AUC(0-t) ([1]; male, Sprague Dawley, rat, 0.1 mg, 0.1 mg/knee intra-articular, read-out: AUC0-672) was 1350 ng·h/mL and the AUC0-inf ([1]; male, Sprague Dawley, rat, 0.1 mg, 0.1 mg/knee intra-articular, read-out: AUC0-inf) was 1290 ng·h/mL. For the same compound, the AUC(0-t) ([1]; male, Sprague Dawley, rat, 0.1 mg, 0.1 mg/knee intra-articular, summary from second six animals, read-out: AUC0-1344) was 1330 ng·h/mL, the Cmax [1, 5] was 34.3 ng/mL and the AUC0-672 [1, 6] was 10600 ng·h/mL. It also gave an AUC0-inf [1, 6] of 11800 ng·h/mL, a Cmax [1, 6] of 71.6 ng/mL and an AUC0-1344 ([1]; 1 mg/knee intra-articular, summary from second six animals, monohydrate) of 11100 ng·h/mL. For the same compound, the dehydration behaviour ([2]; room temperature, stream of nitrogen gas) was “undergo dehydration at room temperature”, the average release rate [3] was 0.54 %/hr and the one-half dissolution time [3] was 66 h. For the same compound, the “knee concentration of compound (in words)” value ([4]; monohydrate) was “below the limit of quantification in the majority of animals”, the “Mean Knee Concentration of Compound” value [4, 7] was 852 ng/g and the “Mean Knee/Plasma Concentration Ratio” value [4, 7] was 58800. For the same compound, the “Mean Knee Concentration of Compound” value ([4]; 0.1 mg/knee, 1344 hr, monohydrate) was “<LLOQ”, the “Mean Knee Concentration of Compound” value ([4]; 1 mg/knee, 672 hr, monohydrate) was 37400 ng/g and the “Mean Knee/Plasma Concentration Ratio” value ([4]; 1 mg/knee, 672 hr, monohydrate) was 22100. The “Mean Knee Concentration of Compound” value [4, 8] was 4560 ng/g and the “Mean Knee/Plasma Concentration Ratio” value [4, 8] was 19000.

In the case of `COc1ccc(COc2ccc(Cn3c(N)nc4cc(-c5cnn(C)c5)cnc43)cc2OC)cc1` [Form 3 Compound, 3-(3-methoxy-4-((4-methoxybenzyl)oxy)benzyl)-6-(1-methyl-1H-pyrazol-4-yl)-3H-imidazo[4,5-b]pyridin-2-amine monohydrate], the Tmax ([1]; Sprague Dawley, 1 mg/knee intra-articular) is reported as 4 h, the “absorption compared to Form 1 Compound” value ([1]; intra-articular, rat) is reported as “slower and more prolonged” and the AUC0-inf ([1]; male, Sprague Dawley, rat, 1 mg, 1 mg/knee intra-articular, read-out: AUC0-inf) is reported as 8040 ng·h/mL. For the same compound, the Cmax ([1]; male, Sprague Dawley, rat, 1 mg, 1 mg/knee intra-articular, read-out: Cmax) was 52.1 ng/mL, the AUC(0-t) ([1]; male, Sprague Dawley, rat, 1 mg, 1 mg/knee intra-articular, summary from second six animals, read-out: AUC0-1344) was 7100 ng·h/mL and the “Ratio Result from Compound Form 3/Compound Form 1: AUC0-672” value ([1]; 0.1 mg/knee) was 0.508. For the same compound, the “Ratio Result from Compound Form 3/Compound Form 1: AUC0-1344” value ([1]; 0.1 mg/knee) was 0.611, the “Ratio Result from Compound Form 3/Compound Form 1: AUC0-inf” value ([1]; 0.1 mg/knee) was 0.587 and the “Ratio Result from Compound Form 3/Compound Form 1: Cmax” value ([1]; 0.1 mg/knee) was 0.332. The “Ratio Result from Compound Form 3/Compound Form 1: AUC0-672” value ([1]; 1 mg/knee) was 0.494, the “Ratio Result from Compound Form 3/Compound Form 1: AUC0-1344” value ([1]; 1 mg/knee) was 0.640 and the “Ratio Result from Compound Form 3/Compound Form 1: AUC0-inf” value ([1]; 1 mg/knee) was 0.681. The “Ratio Result from Compound Form 3/Compound Form 1: Cmax” value ([1]; 1 mg/knee) was 0.728, the AUC0-672 [1, 5] was 686 ng·h/mL and the AUC0-inf [1, 5] was 757 ng·h/mL. It also gave a Cmax [1, 5] of 11.4 ng/mL, an AUC0-1344 ([1]; 0.1 mg/knee intra-articular, summary from second six animals, monohydrate) of 813 ng·h/mL and an AUC0-672 [1, 6] of 5240 ng·h/mL. For the same compound, the “thermodynamic stability compared to monohydrate Form 1” value [2] was “thermodynamically more stable”, the temperature of dehydration ([2]; heated) was 130 °C and the average release rate [3] was 0.35 %/hr. The one-half dissolution time [3] was 112 h, the “dialysis dissolution rate compared to Form 1” value ([3]; simulated intra-articular fluid) was “significantly lower” and the “hygroscopicity (dynamic vapor sorption isotherm)” value (Dynamic vapor sorption) was “not hygroscopic”. The “knee concentration of compound (in words)” value ([4]; monohydrate) was “consistently higher than the concentration”, the “Knee concentration: Ratio of Form 3 Compound/Form 1 Compound” value ([4]; 0.1 mg/knee, 672 hr) was 5.62 and the “Knee/plasma ratio: Ratio of Form 3 Compound/Form 1 Compound” value (shortened to “Knee/plasma ratio: Ratio”) ([4]; 0.1 mg/knee, 672 hr) was 0.733. For the same compound, the “Mean Knee Concentration of Compound” value [4, 7] was 4790 ng/g, the “Mean Knee/Plasma Concentration Ratio” value [4, 7] was 43100 and the “Mean Knee/Plasma Concentration Ratio” value ([4]; 0.1 mg/knee, 1344 hr) was 77400. The “Knee concentration: Ratio of Form 3 Compound/Form 1 Compound” value ([4]; 1 mg/knee, 672 hr) was 5.40, the “Knee/plasma ratio: Ratio” value ([4]; 1 mg/knee, 672 hr) was 2.64 and the “Mean Knee Concentration of Compound” value ([4]; 1 mg/knee, 672 hr, monohydrate) was 202000 ng/g. The “Mean Knee/Plasma Concentration Ratio” value ([4]; 1 mg/knee, 672 hr, monohydrate) was 58300, the “Knee concentration: Ratio of Form 3 Compound/Form 1 Compound” value ([4]; 1 mg/knee, 1344 hr) was 13.6 and the “Knee/plasma ratio: Ratio” value ([4]; 1 mg/knee, 1344 hr) was 1.96. For the same compound, the “Mean Knee Concentration of Compound” value [4, 8] was 62200 ng/g, the “Mean Knee/Plasma Concentration Ratio” value [4, 8] was 37200 and the concentration at 1344 hr ([4]; male, Sprague Dawley, rat, knee joint, other: intra-articular injection to the left knee joint, 0.1 mg/knee, 1344 hr, read-out: Mean Knee Concentration of Compound) was 383 ng/g.

Reference: patent publication US12291528B2, “Crystalline imidazo[4,5-b]pyridine compound, pharmaceutical compositions, and their use in treating medical conditions” (Genzyme Corporation, priority 2021, dated 2025)
